Measured values: US20240307526A1, “COMPOSITIONS COMPRISING HYDROXYETHYL-CAPPED CATIONIC PEPTOIDS” (priority 2021, published 2024)

Assay: Efficacy and toxicology studies (Table 9), intramuscular in rat
Details: mouse efficacy and rat toxicology studies; formulated in DV-140-F2

CCCCCCCCCCN(CC(N)=O)C(=O)CN(CCCCCCCCCC)C(=O)CN(CCCCCCCCCC)C(=O)CN(CCCCCCCCCC)C(=O)CNCCO [Compound 140]
tolerability: well-tolerated
